# In patent US7691876B2, “Heterobicyclic amide compounds” (Hoffmann-La Roche Inc., priority 2006, dated 2010):
# pIC50: −log10 of the molar value.
# Target: T1, cholesteryl ester transfer protein (CETP) (Homo sapiens, UniProt P11597)
# T1 construct: the source of CETP was human lipoprotein-deprived serum (LPDS); from tissue; host or cells: human lipoprotein-deprived serum (LPDS)
# T1 sequence (P11597 18-493): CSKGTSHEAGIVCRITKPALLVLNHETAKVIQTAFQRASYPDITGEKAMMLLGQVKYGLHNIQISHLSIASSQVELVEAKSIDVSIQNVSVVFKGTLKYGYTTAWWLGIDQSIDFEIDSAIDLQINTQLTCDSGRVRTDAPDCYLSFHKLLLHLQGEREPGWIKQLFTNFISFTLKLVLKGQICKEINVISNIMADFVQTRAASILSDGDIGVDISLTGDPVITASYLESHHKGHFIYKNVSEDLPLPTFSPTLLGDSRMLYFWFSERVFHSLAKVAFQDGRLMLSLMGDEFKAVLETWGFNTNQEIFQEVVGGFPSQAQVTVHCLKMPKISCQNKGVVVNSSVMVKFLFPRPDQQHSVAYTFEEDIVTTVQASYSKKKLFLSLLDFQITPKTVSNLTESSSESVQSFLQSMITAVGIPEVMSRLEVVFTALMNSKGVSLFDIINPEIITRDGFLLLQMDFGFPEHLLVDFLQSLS
# Test: CETP activity SPA assay in the presence of plasma (human lipoprotein-deprived serum as source of CETP)
# Type: biochemical
# Conditions: source of CETP was human lipoprotein-deprived serum (LPDS), transfer of radiolabeled cholesteryl ester from HDL donor to biotin-labeled LDL acceptor particles
# Procedure: Activity of CETP inhibitors was determined using a buffer assay system. Partially purified CETP transferred radiolabeled cholesteryl ester from HDL donor particles to biotin-labeled LDL acceptor particles. The reaction was stopped by addition of streptavidin-coupled scintillation proximity assay (SPA) beads. These beads captured the biotinylated acceptor particles and transferred radioactivity was measured. The assay system was purchased and performed according to manufacturer's recommendations (Amersham Biosciences). Inhibitory activity of compounds was determined as percentage of positive control activity containing CETP together with donor and acceptor particles. Serial dilution of compounds was performed in order to determine the IC50 values.
# Activity of the compounds was subsequently measured in the presence of plasma using the same assay as described above except that the source of CETP was human lipoprotein-deprived serum (LPDS). Inhibitory activity of compounds was determined as percentage of positive control activity containing all the assay components except compound. Serial dilution of compounds was performed in order to determine the IC50 values.
row,pIC50,Compound
1,6.76,"CC(C)(C)c1ccc(CN(CCc2cccc(C(F)(F)F)c2)C(=O)c2nc(Cl)cc3cc[nH]c23)cc1 [Compound 3.22, 5-chloro-1H-pyrrolo[2,3-c]pyridine-7-carboxylic acid (4-tert-butyl-benzyl)-[2-(3-trifluoromethyl-phenyl)-ethyl]-amide]"
2,6.85,"Cc1cc2cc[nH]c2c(C(=O)N(CCc2ccc(Cl)c(Cl)c2)Cc2ccc(C(C)(C)C)cc2)n1 [Compound 3.14, 5-methyl-1H-pyrrolo[2,3-c]pyridine-7-carboxylic acid (4-tert-butyl-benzyl)-[2-(3,4-dichloro-phenyl)-ethyl]-amide]"
3,6.36,"CC(C)(C)c1ccc(CN(CCc2ccc(F)cc2)C(=O)c2ncc(F)c3cc[nH]c23)cc1 [Compound 3.15, 4-fluoro-1H-pyrrolo[2,3-c]pyridine-7-carboxylic acid (4-tert-butyl-benzyl)-[2-(4-fluoro-phenyl)-ethyl]-amide]"
